Patent US20120015923A1, “USE OF ANDROGRAPHOLIDE COMPOUNDS FOR TREATING INFLAMMATION AND AIRWAY DISORDERS” (NATIONAL UNIVERSITY OF SINGAPORE, priority 2009, published 2012)

What was measured:
Type in all cases: in vivo, BALB/c mice
[1] = system: lung tissue eosinophilia, mucus secretion and mast cells; test: Histologic analysis of lung tissue (H&E, PAS, toluidine-blue); settings: OVA-challenged mice; for lung tissue eosinophilia / eosinophil-rich leukocyte infiltration (H&E): vs DMSO control
Experimental: Lungs were fixed in 10% neutral formalin, paraffinized, cut into 6-μm sections, and stained with hematoxylin and eosin (H&E) for examining cell infiltration and with periodic acid-Schiff stain (PAS) for measuring mucus production. Quantitative analysis was performed blinded as described below. Mast cells were detected in lung tissue using toluidine-blue staining, and the number of mast cells was counted in paraffin sections. The percentage of degranulated mast cells in the lung was calculated by counting the number of cells with 10% of extrusion of granules.
For both H&E and PAS staining, bronchioles selected for analysis were of similar structure and sizes, with clear morphology presentations and minimum disruptions of the surrounding tissues that could be formed during sectioning. The scoring of inflammatory and globlet cells was performed in 2-4 preparations of each mouse and mean scores were calculated from 4-5 mice. Peribronchial cell counts were performed in a blind manner and scored as known in the art. A five-point scoring system (0-4) was adapted: 0, no cells; 1, a few cells; 2, a ring of cells one cell layer deep; 3, a ring of cells two to four cells deep; 4, a ring of cells more than four cells deep. Goblet cell hyperplasia in the airway epithelium was assessed blind and scored according to the percentage of PAS-positive mucus-producing cells. A five-point (0-4) grading system was as follows: 0, no goblet cells; 1, <25%; 2, 25-50%; 3, 50-75%; 4, >75%. Briefly, to determine the severity of inflammatory cell infiltration, peribronchial cell counts were performed blind based on a 5-point scoring system: 0, no cells; 1, a few cells; 2, a ring of cells 1 cell layer deep; 3, a ring of cells 2-4 cells deep; 4, a ring of cells of >4 cells deep. To determine the extent of mucus production, goblet cell hyperplasia in the airway epithelium was quantified blind using a 5-point grading system: 0, no goblet cells; 1, <25%; 2, 25-50%; 3, 50-75%; 4, >75%. Scoring of inflammatory cells and goblet cells was performed in at least 3 different fields for each lung section. Mean scores were obtained from 4 animals. *Significant difference from DMSO control, P<0.05.

[2] = system: IL-4, IL-5, IL-13, eotaxin and IFN-γ in the BAL fluid; test: Cytokine and chemokine levels in BAL fluid (ELISA), OVA mouse asthma model; settings: OVA-challenged mice
[3] = system: Nitric Oxide (NO); test: Serum nitrate nitrite level; settings: OVA-challenged mice
[4] = system: p65 NF-κB; test: p65 NF-κB nuclear translocation and DNA-binding in lung tissue nuclear extracts; settings: 1 mg/kg; 24 hours after last OVA aerosol; reduced to the basal levels
Experimental: Lung and cell culture nuclear proteins ([…]) were isolated. Lysates were incubated on ice for 30 min before centrifugation (18,000 g for 5 min). The supernatants were collected, and protein concentrations were determined using a BCA protein assay kit. 28 μl of the protein measured were mixed with 7 μl 5× sample buffer and boiled at 95° C. for 5 min. 10% SDS-PAGE gel was set as known in the art. The gel was placed in a Trans-Blot tank (Bio-Rad Laboratories, Hercules, Calif.). 30 μl of the sample mixtures and Pre-stained SDS Page Marker (Bio-Rad Laboratories, Hercules, Calif.) were loaded into respective wells and ran at 100V for 2 hours. The proteins were then transferred to a PVDF membrane using a semi-dry transblotter (ATTO Corp, Tokyo, Japan). The PVDF membrane was blocked with 5% non-fat milk in Tween-20 Tris buffered saline (TTBS) for 2 hours and probed with various primary antibodies in 1% non-fat milk in TTBS (1:2,000 for anti-rabbit antibodies; 1:5,000 for anti-mouse antibodies; 1:10,000 for β-actin) overnight at 4° C. The PVDF was then washed with TTBS for 10 times (2-3 min each), and incubated in HRP- or AP-conjugated anti-mouse or anti-rabbit antibodies for 1 hour. The membrane was again washed with TTBS. […]
Nuclear proteins were also analyzed for NF-κB DNA-binding activity using the TransAM p65 transcription factor assay kit (Active Motif, Carlsbad, Calif.).

Compound	E-selectin [1]	VCAM-1 [1]	airway mucus production / mucus hypersecretion (PAS) ([1]; 1 mg/kg)	lung tissue eosinophilia / eosinophil-rich leukocyte infiltration (H&E) ([1]; 1 mg/kg)	GM-CSF level in BAL fluid [2]	TNF-α level in BAL fluid [2]	total degranulating mast cell counts in toluidine-blue staining lung section ([1]; 1 mg/kg, vs DMSO vehicle control)	serum nitrate nitrite level [3]	nuclear p65 DNA-binding activity in lung tissue nuclear extract [4]	nuclear p65 amount in lung tissue nuclear extract [4]
C=C1CC[C@@H]2[C@](C)(CO)[C@H](O)CC[C@@]2(C)[C@@H]1C/C=C1/C(=O)OC[C@H]1O [Andrographolide]	inhibited	inhibited	attenuated	attenuated	inhibited	inhibited	–	–	–	–
C=C1CCC2C(C)(CO)C(O)CCC2(C)C1C=CC1=CCOC1=O (stereo not drawn) [DDAG, 14-Deoxy-11,12-didehydroandrographolide]	–	–	significantly halted	markedly diminished	–	–	drastically decreased	reduce	significantly (P<0.05) reduced	significantly (P<0.05) reduced
